Like-named read-outs stand apart in the source and are kept apart here.

For the assay, the target named is BTK (Homo sapiens (Human), UniProt Q06187). Description: Btk in vitro inhibitory activity (one of Method A TR-FRET, Method B electrophoretic mobility shift, Method C radiometric filter binding). The format is biochemical.
[1] abbreviates: determined using one of the methods of Example 355a, 355b and 355c, read-out: BTK IC50.

BTK, sequence (Q06187 whole entry): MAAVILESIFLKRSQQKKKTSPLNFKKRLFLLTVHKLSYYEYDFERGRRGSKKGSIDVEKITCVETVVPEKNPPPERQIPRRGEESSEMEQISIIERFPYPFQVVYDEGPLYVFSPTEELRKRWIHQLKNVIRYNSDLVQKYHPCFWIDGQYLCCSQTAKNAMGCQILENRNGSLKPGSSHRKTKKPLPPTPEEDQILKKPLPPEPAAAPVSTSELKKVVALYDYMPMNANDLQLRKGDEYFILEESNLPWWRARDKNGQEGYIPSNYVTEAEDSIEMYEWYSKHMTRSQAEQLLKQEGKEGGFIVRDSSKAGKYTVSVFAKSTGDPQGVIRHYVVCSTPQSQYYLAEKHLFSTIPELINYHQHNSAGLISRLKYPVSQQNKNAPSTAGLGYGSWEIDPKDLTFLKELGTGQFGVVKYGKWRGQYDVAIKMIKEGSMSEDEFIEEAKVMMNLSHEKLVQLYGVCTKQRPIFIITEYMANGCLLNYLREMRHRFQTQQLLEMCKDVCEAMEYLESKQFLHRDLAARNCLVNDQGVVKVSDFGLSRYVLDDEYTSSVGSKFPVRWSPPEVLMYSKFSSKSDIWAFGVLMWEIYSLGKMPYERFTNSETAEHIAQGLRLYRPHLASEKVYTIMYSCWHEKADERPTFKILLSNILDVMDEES

`CN(C)C(=O)N[C@@H]1CCCN(c2cnc(C(N)=O)c(Nc3cnn(C4CCN(C(=O)C5CC5)CC4)c3)n2)C1` [Example 219, (R)-3-(1-(1-(cyclopropanecarbonyl)piperidin-4-yl)-1H-pyrazol-4-ylamino)-5-(3-(3,3-dimethylureido)piperidin-1-yl)pyrazine-2-carboxamide]: the concentration for half-maximal inhibition (IC50) (as a rule, the midpoint of a concentration-inhibition curve) is, setting by setting: (Btk (IC50)) 10 to 100 nM; under setting [1], 10 to 100 nM. On to `CN1CCN([C@@H]2CCCN(c3cnc(C(N)=O)c(Nc4ccc(C5CCN(C6CCC6)CC5)cc4)n3)C2)C1=O` [Example 258], for which the half-maximal inhibitory concentration (IC50) under setting [1] is under 10 nM. With `Cc1cccc(Nc2nc(N3CCC[C@@H](NC(=O)c4ccc(C(C)(C)C)cc4)C3)nnc2C(N)=O)c1` [Example 54, (R)-3-(3-(4-tert-butylbenzamido)piperidin-1-yl)-5-(m-tolylamino)-1,2,4-triazine-6-carboxamide], under setting [1], the IC50 lay in the range of 1000 to 10000 nM. `CN(C)C(=O)N[C@@H]1CCCN(c2cnc(C(N)=O)c(Nc3ccc(C4(C#N)CCCC4)cc3)n2)C1` [Example 203, (R)-3-(4-(1-cyanocyclopentyl)phenylamino)-5-(3-(3,3-dimethylureido)piperidin-1-yl)pyrazine-2-carboxamide]: the half-inhibitory concentration (IC50) was under 10 nM (Btk (IC50)) and under 10 nM under setting [1]. `CC#CC(=O)N1CCC[C@@H](N(C)c2cnc(C(N)=O)c(Nc3ccc(C(=O)N4CCOCC4)cc3)n2)C1` [Example 157, (R)-5-((1-but-2-ynoylpiperidin-3-yl)(methyl)amino)-3-(4-(morpholine-4-carbonyl)phenylamino)pyrazine-2-carboxamide]: the IC50 reads like this: under setting [1], under 10 nM; (read-out: Btk (IC50)) under 10 nM. Take `CCOc1ccc(Nc2nc(N3CCC[C@@H](NC(=O)c4ccc(OC)cc4)C3)cnc2C(N)=O)cc1` [Example 111, (R)-3-(4-ethoxyphenylamino)-5-(3-(4-methoxybenzamido)piperidin-1-yl)pyrazine-2-carboxamide]: the IC50 is, setting by setting: under setting [1], 10 to 100 nM; (read-out: Btk (IC50)) 10 to 100 nM.

With `CN(C)C(=O)N[C@@H]1CCCN(c2cnc(C(N)=O)c(Nc3ccc(S(C)(=O)=O)cc3)n2)C1` [Example 151, (R)-5-(3-(3,3-dimethylureido)piperidin-1-yl)-3-(4-(methylsulfonyl)phenylamino)pyrazine-2-carboxamide], the IC50 was under 10 nM under setting [1] and under 10 nM (read-out: Btk (IC50)). `C[C@@H]1[C@H](NC(=O)N(C)C)CCCN1c1cnc(C(N)=O)c(Nc2ccc(C3(C(N)=O)CCN(C4CCCC4)CC3)cc2)n1` [Example 251, 3-(4-(4-carbamoyl-1-cyclopentylpiperidin-4-yl)phenylamino)-5-((2R,3R)-3-(3,3-dimethylureido)-2-methylpiperidin-1-yl)pyrazine-2-carboxamide]: for the setting “read-out: Btk (IC50)”, the 50% inhibitory concentration (IC50) was under 10 nM.

`NC(=O)c1nnc(N[C@@H]2CCCNC2)nc1Nc1ccc(C(=O)N2CCOCC2)cc1` [Example 61, (R)-5-(4-(morpholine-4-carbonyl)phenylamino)-3-(piperidin-3-ylamino)-1,2,4-triazine-6-carboxamide]: under setting [1], the half-maximal inhibitory concentration (IC50) lay within 1000 to 10000 nM.

With `CS(=O)(=O)c1ccc(Nc2nc(N3CCC[C@@H](NC(=O)N4CCCCC4)C3)cnc2C(N)=O)cc1` [Example 145, (R)-3-(4-(methylsulfonyl)phenylamino)-5-(3-(piperidine-1-carboxamido)piperidin-1-yl)pyrazine-2-carboxamide], the IC50 runs as follows: under setting [1], under 10 nM; (read-out: Btk (IC50)) under 10 nM. `NC(=O)c1nnc(N2CCC[C@@H](NC(=O)c3ccc(Cl)cc3)C2)nc1Nc1ccc(C(=O)N2CCOCC2)cc1` [Example 8, (R)-3-(3-(4-chlorobenzamido)piperidin-1-yl)-5-(4-(morpholine-4-carbonyl)phenylamino)-1,2,4-triazine-6-carboxamide]: the IC50 under setting [1] was under 10 nM. As to `CN(C)C(=O)N[C@@H]1CCCN(c2cnc(C(N)=O)c(Nc3ccc(C4CCN(C5CCOCC5)CC4)cc3)n2)C1` [Example 176, (R)-5-(3-(3,3-dimethylureido)piperidin-1-yl)-3-(4-(1-(tetrahydro-2H-pyran-4-yl)piperidin-4-yl)phenylamino)pyrazine-2-carboxamide], the IC50 under setting [1] was under 10 nM and the half-maximal inhibitory concentration (IC50) (read-out: Btk (IC50)) is under 10 nM. Take `NC(=O)c1nnc(N2CCC[C@@H](NC(=O)c3ccncc3)C2)nc1Nc1ccc(C(=O)N2CCOCC2)cc1` [Example 14, (R)-3-(3-(isonicotinamido)piperidin-1-yl)-5-(4-(morpholine-4-carbonyl)phenylamino)-1,2,4-triazine-6-carboxamide]: the IC50 under setting [1] was under 10 nM. On to `COc1ccc(C(=O)N[C@@H]2CCCN(c3cnc(C(N)=O)c(Nc4ccc(N5CCOCC5)c(F)c4)n3)C2)cc1` [Example 125, (R)-3-(3-fluoro-4-morpholinophenylamino)-5-(3-(4-methoxybenzamido)piperidin-1-yl)pyrazine-2-carboxamide], for which the 50% inhibitory concentration (IC50) under setting [1] is under 10 nM.

In the case of `CN(C(=O)c1ccc(C(C)(C)C)cc1)[C@@H]1CCCN(c2nnc(C(N)=O)c(Nc3ccc(C(=O)N4CCOCC4)cc3)n2)C1` [Example 3, (R)-3-(3-(4-tert-butyl-N-methylbenzamido)piperidin-1-yl)-5-(4-(morpholine-4-carbonyl)phenylamino)-1,2,4-triazine-6-carboxamide], under setting [1], the IC50 lay in the range of 10 to 100 nM. On to `CC[C@@H]1[C@H](NC(=O)N(C)C)CCCN1c1cnc(C(N)=O)c(Nc2ccc(C3CCN(C4CCC4)CC3)cc2)n1` [Example 236, 3-(4-(1-cyclobutylpiperidin-4-yl)phenylamino)-5-((2R,3R)-3-(3,3-dimethylureido)-2-ethylpiperidin-1-yl)pyrazine-2-carboxamide], for which the IC50 is under 10 nM under setting [1] and under 10 nM (read-out: Btk (IC50)). Turning to `CCC(=O)N1CCC(c2ccc(Nc3nc(N4CCC[C@@H](NC(=O)c5ccc(OC)cc5)C4)cnc3C(N)=O)cc2)CC1` [Example 140, (R)-5-(3-(4-methoxybenzamido)piperidin-1-yl)-3-(4-(1-propionylpiperidin-4-yl)phenylamino)pyrazine-2-carboxamide], the IC50 under setting [1] is under 10 nM.

Regarding `C=CC(=O)N1CCC(c2ccc(Nc3nc(N4CCC[C@@H](NC(=O)N5CCCCC5)C4)nnc3C(N)=O)cc2)CC1` [Example 340], under setting [1], the IC50 is under 10 nM.

Regarding `CC(C)(C)c1ccc(C(=O)N[C@@H]2CCCN(c3nnc(C(N)=O)c(Nc4cccc(-c5ncccn5)c4)n3)C2)cc1` [Example 57, (R)-3-(3-(4-tert-butylbenzamido)piperidin-1-yl)-5-(3-(pyrimidin-2-yl)phenylamino)-1,2,4-triazine-6-carboxamide], the concentration for half-maximal inhibition (IC50) under setting [1] was in the range of 100 to 1000 nM. For `COc1ccc(C(=O)N[C@@H]2CCCN(c3cnc(C(N)=O)c(Nc4ccc(N5CCCCC5=O)cc4)n3)C2)cc1` [Example 128, (R)-5-(3-(4-methoxybenzamido)piperidin-1-yl)-3-(4-(2-oxopiperidin-1-yl)phenylamino)pyrazine-2-carboxamide], the 50% inhibitory concentration (IC50) reads like this: under setting [1], under 10 nM; (read-out: Btk (IC50)) under 10 nM. Take `C[C@@H]1[C@H](N)CCCN1c1cnc(C(N)=O)c(Nc2ccc(C3CCN(C4CCCC4)CC3)cc2)n1` [Example 230, 5-((2R,3R)-3-amino-2-methylpiperidin-1-yl)-3-(4-(1-cyclopentylpiperidin-4-yl)phenylamino)pyrazine-2-carboxamide]: the concentration for half-maximal inhibition (IC50) (Btk (IC50)) was in the range of 10 to 100 nM and the IC50 under setting [1] fell in the range of 10 to 100 nM.

The values are drawn from patent publication US9656988B2 (Pharmacyclics LLC, priority 2013, dated 2017).
